Reference: publication PMC1097768 (Nucleic Acids Research, 2005)

Molecular target: mNdK (nucleoside diphosphate kinase) (Mycobacterium tuberculosis, UniProt P9WJH7)
Assay: FRET molecular beacon nuclease assay with FP1T, Lineweaver-Burk analysis
Format: biochemical

Sequence of mNdK (nucleoside diphosphate kinase) (P9WJH7 whole entry): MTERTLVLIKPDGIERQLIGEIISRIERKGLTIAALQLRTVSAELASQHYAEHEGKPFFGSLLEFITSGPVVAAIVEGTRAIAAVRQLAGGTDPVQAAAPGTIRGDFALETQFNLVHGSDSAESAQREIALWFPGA

Q: For `Nc1nc2c(ncn2[C@@H]2O[C@H](COP(=O)(O)OP(=O)(O)O)[C@@H](O)[C@H]2O)c(=O)[nH]1` [GDP], which Ki is on record?
A: ~1900 µM
